Experimental data from patent publication US4689318A, “GRF analogs” (The Salk Institute for Biological Studies, priority 1985, dated 1987).
No end group written: not given here.

Tested on: cells of rat pituitary glands
Assay: in vitro GH release from cultured rat pituitary cells, side-by-side with synthetic hGRF(1-40)-OH standard, ir GH by radioimmunoassay
Assay type: cell-based
Conditions: equimolar concentrations; rat pituitary cell cultures; 4 hours incubation; immunoreactive GH in culture medium
Procedure: As an example of testing the effectiveness of the synthetic peptide of Example I to promote the release of growth hormone, in vitro assays are carried out using synthetic hGRF(1-40)-OH as a standard in side-by-side comparison with equimolar concentrations of the various other analogs and fragments synthesized. Cultures are used which include cells of rat pituitary glands removed four days previous to testing. Cultures which are considered optimal for the secretion of growth hormone are used for the comparative testing, in the general manner described in Vale et al. Endocrinology, 91, 562-572 (1972) and as more particularly described in Vale et al., Endocrinology, 112, 1553-1555 (1983). Incubation with the substance to be tested is carried out for 4 hours, and aliquots of the culture medium are removed and processed to measure their respective content of immunoreactive GH(ir GH) by a well-characterized radioimmunoassay.

| Substance | potency to promote the release of growth hormone relative to the hpGRF(1-40)-OH standard |
| --- | --- |
| YADAIFSSAYRRLLAQLASRRLLQELLAR [Example II, [Ser^7,8,19, Ala^9,15,18,28, Arg^12,21, Leu^13,26,27]-hGRF(1-29)-OH] | equivalent to the hpGRF(1-40)-OH standard |
| YADAIFSSAYRRLLAQLASRRLLQELLAR-NH2 [Example I, [Ser^7,8,19, Ala^9,15,18,28, Arg^12,21, Leu^13,26,27]-hGRF(1-29)-NH2] | equivalent to the hpGRF(1-40)-OH standard |
